According to PubChem BioAssay AID651842 (Sanford-Burnham Center for Chemical Genomics, 2012):
“And” between values parts separate entries of the source, which are not always exact repeats. Equal entries are not always repeated. The source made the active and inactive calls.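 How the source made its calls: active means IC50 of 35 µM or lower, which flags the compound as cytotoxic and nonspecific; inactive means the rest.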

System: Sufu-KO-LIGHT cells viability, ATP-Lite luminescence
Assay: cytotoxicity in Sufu-KO-LIGHT cells, SAR follow-up, cytotoxicity control for Gli-SUFU antagonist project, cell-based, ATP luminescence, set 1 (AID 651842)

| SMILES | IC50 |
| --- | --- |
| CN(C)c1cc(NC(=O)c2ccccc2)ncn1 | > 35 µM (inactive) |
| O=C(Nc1cc(N2CCCCC2)ncn1)c1ccc2ccccc2c1 | 2.57 µM |
| O=C(Nc1cc(N2CCCCC2)ncn1)c1cccc2ccccc12 | > 35 µM (inactive) |
| O=C(Nc1cc(N2CCCCC2)ncn1)c1cccc(F)c1 | > 35 µM (inactive) |
| CCN(CC)c1cc(NC(=O)c2cccc(C#N)c2)ncn1 | > 35 µM (inactive) |
| O=C(Nc1cc(N2CCCCC2)ncn1)c1ccsc1 | > 35 µM (inactive) |
| O=C(Nc1cc(N2CCCCCC2)ncn1)c1ccccc1 | > 35 µM (inactive) |
| N#Cc1cccc(C(=O)Nc2cc(N3CCCCC3)ncn2)c1 | > 35 µM (inactive) |
| Cc1nc(NC(=O)c2ccccc2)cc(N(C)C)n1 | > 35 µM (inactive) |
| CCN(CC)c1cc(NC(=O)c2ccc(Br)o2)ncn1 | > 35 µM (inactive) |
| CN1CCN(c2cc(NC(=O)c3ccccc3)ncn2)CC1 | > 35 µM (inactive) |
| CCN(CC)c1cc(NC(=O)c2ccccc2)nc(C)n1 | > 35 µM (inactive) |
| CC(C)(C)OC(=O)N1CCN(c2cc(NC(=O)c3ccccc3)ncn2)CC1 | 0.24 µM |
| CCCCNc1cc(NC(=O)c2ccccc2)ncn1 | > 35 µM (inactive) |
| COc1cc(OC)cc(C(=O)Nc2cc(N3CCCC3)ncn2)c1 | > 35 µM (inactive) |
| O=C(Nc1cc(N2CCCCC2)ncn1)c1ccccc1F | > 35 µM (inactive) |
| O=C(Nc1cc(N2CCCCC2)ncn1)c1ccc(Cl)cc1 | 1.42 µM and 0.588 µM |
| O=C(Nc1cc(N2CCCCC2)ncn1)c1ccc(Br)o1 | > 35 µM (inactive) |
| CCN(CC)c1cc(NC(=O)c2ccccc2)ncn1 | > 35 µM (inactive) |
| CN(C)c1cc(NC(=O)c2ccccc2F)ncn1 | > 35 µM (inactive) |
| O=C(Nc1cc(N2CCOCC2)ncn1)c1ccccc1 | > 35 µM (inactive) |
| N#Cc1ccc(C(=O)Nc2cc(N3CCCCC3)ncn2)cc1 | > 35 µM (inactive) |
| O=C(Nc1cc(N2CCCCC2)ncn1)c1cccs1 | > 35 µM (inactive) |
| CCN(CC)c1cc(NC(=O)c2ccccc2F)ncn1 | > 35 µM (inactive) |
| CCC(C)Nc1cc(NC(=O)c2ccccc2)ncn1 (centres undefined) | > 35 µM (inactive) |
| CC1CCCCN1c1cc(NC(=O)c2ccccc2)ncn1 (centres undefined) | > 35 µM (inactive) |
| COc1ccccc1C(=O)Nc1cc(N2CCCCC2)ncn1 | > 35 µM (inactive) |

| SMILES | IC50 |
| --- | --- |
| O=C(Nc1cc(N2CCCCC2)ncn1)c1ccccc1 | > 35 µM (inactive) |
| COc1cc(OC)cc(C(=O)Nc2cc(N3CCCCC3)ncn2)c1 | 4.69 µM |
| CN(C)c1cc(NC(=O)c2cccc(F)c2)ncn1 | > 35 µM (inactive) |
| Cc1nc(NC(=O)c2ccccc2)cc(N2CCCCC2)n1 | > 35 µM (inactive) |
| COc1cccc(C(=O)Nc2cc(N3CCCCC3)ncn2)c1 | 2.28 µM |
| O=C(Nc1cc(N2CCCCC2)ncn1)c1ccccc1Cl | > 35 µM (inactive) |
| CC(C)CNc1cc(NC(=O)c2cccc(F)c2)ncn1 | > 35 µM (inactive) |
| CC(C)Nc1cc(NC(=O)c2ccccc2)ncn1 | > 35 µM (inactive) |
| CC1CCN(c2cc(NC(=O)c3ccccc3)ncn2)CC1 | > 35 µM (inactive) |
| O=C(Nc1cc(N2CCCCC2)ncn1)c1ccco1 | > 35 µM (inactive) |
| CC(C)(C)Nc1cc(NC(=O)c2ccccc2)ncn1 | > 35 µM (inactive) |
| COc1cc(OC)cc(C(=O)Nc2cc(Nc3cccc(Cl)c3)ncn2)c1 | > 35 µM (inactive) |
| COc1cc(OC)cc(C(=O)Nc2cc(N(C)C)ncn2)c1 | > 35 µM (inactive) |
| O=C(Nc1cc(N2CCSCC2)ncn1)c1ccccc1 | > 35 µM (inactive) |
| O=C(Nc1cc(N2CCCC2)ncn1)c1ccccc1 | > 35 µM (inactive) |
| Cc1nc(NC(=O)c2ccccc2)cc(N2CCCC2)n1 | > 35 µM (inactive) |
| CC(C)CNc1cc(NC(=O)c2ccccc2)ncn1 | > 35 µM (inactive) |
| O=C(Nc1cc(N2CCNCC2)ncn1)c1ccccc1 | > 35 µM (inactive) |
| O=C(Nc1cc(N2CCCC2)ncn1)c1ccccc1F | > 35 µM (inactive) |
| CN(C)c1cc(NC(=O)c2cccc(C#N)c2)ncn1 | > 35 µM (inactive) |
| CCN(CC)c1cc(NC(=O)c2cc(OC)cc(OC)c2)ncn1 | > 35 µM (inactive) |
| CCCCN(C)c1cc(NC(=O)c2ccccc2)ncn1 | 2.89 µM |
| O=C(Nc1cc(N2CCCC2)ncn1)c1cccc(F)c1 | > 35 µM (inactive) |
| CCN(CC)c1cc(NC(=O)c2cccc(F)c2)ncn1 | > 35 µM (inactive) |
| Cc1ccc(C(=O)Nc2cc(N3CCCCC3)ncn2)cc1 | 3.45 µM |
| O=C(Nc1cc(N2CCCCC2)ncn1)c1cc2ccccc2s1 | 6.97 µM |
| O=C(Nc1cc(NCC2CCCO2)ncn1)c1ccccc1 (centres undefined) | > 35 µM (inactive) |
